This experiment addresses RAC-alpha serine/threonine-protein kinase (Homo sapiens, UniProt P31749). The experiment can be described thus: Inhibition of Akt.

Each structure is given as a SMILES string.

Usually IC50 stands for the midpoint of a concentration-inhibition curve.

Sequence of RAC-alpha serine/threonine-protein kinase (P31749 whole entry): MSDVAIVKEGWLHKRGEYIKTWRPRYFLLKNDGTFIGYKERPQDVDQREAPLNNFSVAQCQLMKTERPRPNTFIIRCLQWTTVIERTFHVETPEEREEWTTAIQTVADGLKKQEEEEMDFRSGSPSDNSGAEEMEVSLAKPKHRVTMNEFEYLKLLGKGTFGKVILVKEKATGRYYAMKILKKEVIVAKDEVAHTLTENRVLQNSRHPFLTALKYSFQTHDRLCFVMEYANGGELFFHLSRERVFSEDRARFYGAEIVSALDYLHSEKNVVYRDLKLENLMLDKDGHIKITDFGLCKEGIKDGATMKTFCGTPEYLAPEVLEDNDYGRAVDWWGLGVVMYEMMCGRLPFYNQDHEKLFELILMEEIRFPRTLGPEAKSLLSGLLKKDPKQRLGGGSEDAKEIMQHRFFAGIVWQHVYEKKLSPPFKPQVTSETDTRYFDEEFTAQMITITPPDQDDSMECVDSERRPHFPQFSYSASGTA

The molecule `C(=C\c1cncc(OCC2CCN2)c1)/c1ccncc1` (stereo unspecified) showed a half-maximal inhibitory concentration (IC50) of 10900 nM. With `O=C1C(Sc2cccc(Cl)c2Cl)=C(Cl)C(=O)c2[nH]ncc21`, the half-inhibitory concentration (IC50) was found to be 12300 nM. This IC50 and that of the molecule before are within 1.5-fold of each other. Then `Nc1nccc2cc(-c3cncc(OC[C@@H](N)Cc4c[nH]c5ccccc45)c3)ccc12`, with 188 nM. With `N[C@H](COc1cncc(-c2cc3ccncc3s2)c1)Cc1c[nH]c2ccccc12`, the IC50 worked out at 179 nM. The molecule `N[C@H](COc1cncc(-c2ccc3c(c2)CC(=O)N3)c1)Cc1ccccc1` gave an IC50 of 16 nM. Take `N[C@H](COc1cncc(-c2cccc3cnccc23)c1)Cc1c[nH]c2ccccc12`: the half-inhibitory concentration (IC50) came out at 331 nM. `N[C@H](COc1cncc(C(=O)Nc2ccncc2)c1)Cc1c[nH]c2ccccc12`: 1660 nM corresponded to half-maximal inhibition (IC50). The molecule `N[C@H](COc1cncc(-c2ccncc2)c1)Cc1c[nH]c2ccccc12` returned an IC50 of 245 nM. As for `Cc1n[nH]c2cnc(-c3cncc(OC[C@@H](N)Cc4c(F)cccc4F)c3)cc12`, the 50% inhibitory concentration (IC50) came out at 65.5 nM. As to `N[C@H](COc1cncc(CCc2ccncc2)c1)Cc1c[nH]c2ccccc12`, the half-maximal inhibitory concentration (IC50) amounted to 210 nM. Then `N[C@H](COc1cncc(-c2ccc3c(=O)[nH]ccc3c2)c1)Cc1c[nH]c2ccccc12`, with 1020 nM; and `N[C@H](COc1cncc(-c2ccc3nnccc3c2)c1)Cc1c[nH]c2ccccc12`, with 215 nM; and `Cc1cc(C2C(=O)Nc3ccc(-c4cncc(OC[C@@H](N)Cc5c[nH]c6ccccc56)c4)cc32)oc1C` (stereo partly specified), with 10 nM. `CCc1n[nH]c2ccc(-c3cncc(OC[C@@H](N)Cc4c[nH]c5ccccc45)c3)cc12`: the IC50 turned out to be 1.15 nM.

As for `Nc1n[nH]c2ccc(-c3cncc(OC[C@@H](N)Cc4c[nH]c5ccccc45)c3)cc12`, the midpoint of inhibition, the IC50, lay at 2.9 nM.

With `N[C@H](COc1cncc(-c2ccc3ncccc3c2)c1)Cc1c[nH]c2ccccc12`, 312 nM corresponded to half-maximal inhibition (IC50). Molecule `Cc1n[nH]c2cnc(-c3cncc(OC[C@@H](N)Cc4cccc5c4OC(F)(F)O5)c3)cc12` returned a concentration for half-maximal inhibition (IC50) of 14 nM. In the case of `Cc1n[nH]c2cnc(-c3cncc(OC[C@@H](N)Cc4ccc(C(F)(F)F)cc4)c3)cc12`, the IC50 is 18 nM.

Consider `N[C@H](COc1cncc(-c2ccc3c(c2)C(C2CC2)C(=O)N3)c1)Cc1c[nH]c2ccccc12` (stereo partly specified), for which inhibition was half-maximal at 3.3 nM (IC50). With `N[C@H](COc1cncc(-c2ccc3[nH]nc(-c4ccccc4)c3c2)c1)Cc1c[nH]c2ccccc12`, the 50% inhibitory concentration (IC50) was found to be 3.9 nM. This IC50 and that of the molecule before are within 1.5-fold of each other. Take `CC(C)c1nc(-c2ccccc2)c(-c2ccc(CN3CCC(n4c(=O)[nH]c5ccccc54)CC3)cc2)[nH]c1=O`: the IC50 came to 21200 nM. With `O=c1[nH]c2ccccc2n1C1CCN(Cc2ccc(-c3nc4cc(-n5cnnn5)ccc4nc3-c3ccccc3)cc2)CC1`, the IC50 stood at 20 nM. This IC50 is about 1100-fold lower than that of the molecule before. Then `N[C@H](COc1cncc(NC(=O)c2ccncc2)c1)Cc1c[nH]c2ccccc12`, with 2020 nM; and `N[C@H](COc1cncc(-c2ccc3c(c2)C(c2cccs2)C(=O)N3)c1)Cc1c[nH]c2ccccc12` (stereo partly specified), with 0.9 nM; and `N[C@H](COc1cncc(-c2cnc3c(c2)CC(=O)N3)c1)Cc1c[nH]c2ccccc12`, with 7.4 nM. `Cc1n[nH]c2cnc(-c3cncc(OC[C@@H](N)Cc4cccc(OCCN5CCOCC5)c4)c3)cc12` displayed an IC50 of 751 nM. This IC50 is about 100-fold higher than that of the molecule before. Regarding `CCC1C(=O)Nc2ccc(-c3cncc(OC[C@@H](N)Cc4c[nH]c5ccccc45)c3)cc21` (stereo partly specified), half-maximal inhibition (IC50) required 52.7 nM. As for `N[C@H](COc1cncc(-c2ccc(CO)cc2)c1)Cc1c[nH]c2ccccc12`, the IC50 amounted to 4020 nM. Then `N[C@H](COc1cncc(-c2ccc3[nH]nc(-c4nccs4)c3c2)c1)Cc1c[nH]c2ccccc12`, with 9.8 nM.

`N[C@H](COc1cncc(-c2ccc3c(c2)C(c2c[nH]c4ccccc24)C(=O)N3)c1)Cc1c[nH]c2ccccc12` (stereo partly specified) came in with an IC50 of 153 nM.

`N[C@H](COc1cncc(-c2ccc(NC(=O)Nc3ccccc3)cn2)c1)Cc1c[nH]c2ccccc12` gave an IC50 of 1120 nM. `N[C@H](COc1cncc(-c2ccc3[nH]nc(N4CCOCC4)c3c2)c1)Cc1c[nH]c2ccccc12` showed an IC50 of 18 nM.

Regarding `O=c1[nH]c2ccccc2n1C1CCN(Cc2ccc(-c3nc4ccc(-n5cnnn5)cc4nc3-c3ccccc3)cc2)CC1`, it took 63 nM to reach half-maximal inhibition (IC50).

Take `N[C@H](COc1cncc(-c2ccc3[nH]nc(C4CC4)c3c2)c1)Cc1c[nH]c2ccccc12`: it took 2.6 nM to reach half-maximal inhibition (IC50). The result for `Cc1cc(F)ccc1C[C@H](N)COc1cncc(-c2cc3c(C)n[nH]c3cn2)c1` reads 6 nM; that for `CC(C)=C1C(=O)Nc2ccc(-c3cncc(OC[C@@H](N)Cc4c[nH]c5ccccc45)c3)cc21`, 80 nM; that for `N[C@H](COc1cncc(-c2ccc3[nH]nc(-c4cccs4)c3c2)c1)Cc1c[nH]c2ccccc12`, 1.3 nM. Then `CCc1c(C)[nH]c(C2C(=O)Nc3ccc(-c4cncc(OC[C@@H](N)Cc5c[nH]c6ccccc56)c4)cc32)c1C` (stereo partly specified), with 40.3 nM; and `N[C@H](COc1cncc(-c2ccc3c(c2)C(c2ncc[nH]2)C(=O)N3)c1)Cc1c[nH]c2ccccc12` (stereo partly specified), with 7.2 nM; and `N[C@H](COc1cncc(-c2ccc3c(c2)/C(=C/c2ccc[nH]2)C(=O)N3)c1)Cc1ccccc1`, with 0.6 nM.

`CN(C)c1n[nH]c2ccc(-c3cncc(OC[C@@H](N)Cc4c[nH]c5ccccc45)c3)cc12` had an IC50 of 18 nM.

In turn, `N[C@H](CNc1cnc(Cl)c(/C=C/c2ccncc2)c1)Cc1c[nH]c2ccccc12` returned an IC50 of 79 nM. Against the preceding molecule, the IC50 is about 4.4-fold higher. The molecule `N[C@H](COc1cncc(-c2ccc3c(c2)C(c2cccnc2)C(=O)N3)c1)Cc1c[nH]c2ccccc12` (stereo partly specified) showed a concentration for half-maximal inhibition (IC50) of 10.4 nM. Against the preceding molecule, the IC50 is about 7.6-fold lower. The result for `N[C@H](COc1cncc(-c2ccc3[nH]nc(-c4ccc[nH]4)c3c2)c1)Cc1c[nH]c2ccccc12` reads 1.2 nM. The result for `CC1C(=O)Nc2ccc(-c3cncc(OC[C@@H](N)Cc4c[nH]c5ccccc45)c3)cc21` (stereo partly specified) reads 4 nM. Then `Cc1n[nH]c2cnc(-c3cncc(OC[C@@H](N)Cc4cccc(OCCN)c4)c3)cc12`, with 47 nM. Take `Cc1cc(C)c(C[C@H](N)COc2cncc(-c3cc4c(C)n[nH]c4cn3)c2)c(C)c1`: the IC50 is 39 nM. This IC50 and that of the molecule before are within 1.5-fold of each other.

In turn, `N[C@H](COc1cncc(-c2ccc3c(c2)C(c2ccco2)C(=O)N3)c1)Cc1c[nH]c2ccccc12` (stereo partly specified) came in with an IC50 of 0.17 nM. Compared with the last molecule, the IC50 is about 230-fold lower. The result for `N[C@H](COc1cncc(-c2ccc3c(c2)C(c2ccccn2)C(=O)N3)c1)Cc1c[nH]c2ccccc12` (stereo partly specified) reads 10.3 nM. For `N[C@H](COc1cncc(-c2ccc3c(c2)C(c2ccc[nH]2)C(=O)N3)c1)Cc1c[nH]c2ccccc12` (stereo partly specified), inhibition was half-maximal at 1.5 nM (IC50). Turning to `N[C@H](COc1cncc(-c2ccc3[nH]c(=O)sc3c2)c1)Cc1c[nH]c2ccccc12`, half-maximal inhibition (IC50) was put at 99 nM. Then `Cn1cccc1C1C(=O)Nc2ccc(-c3cncc(OC[C@@H](N)Cc4c[nH]c5ccccc45)c3)cc21` (stereo partly specified), with 8.2 nM. Regarding `N[C@H](COc1cncc(-c2ccc3c(c2)C(Cc2ccco2)C(=O)N3)c1)Cc1ccccc1` (stereo partly specified), the 50% inhibitory concentration (IC50) was determined as 1.4 nM.

Turning to `Cc1n[nH]c2cnc(-c3cncc(OC[C@@H](N)Cc4ccccc4)c3)cc12`, the half-maximal inhibitory concentration (IC50) amounted to 14 nM. As to `Cc1ccc(C2C(=O)Nc3ccc(-c4cncc(OC[C@@H](N)Cc5c[nH]c6ccccc56)c4)cc32)o1` (stereo partly specified), the midpoint of inhibition, the IC50, lay at 0.7 nM. This IC50 lies about 20-fold lower than the previous one. `Cc1n[nH]c2cnc(-c3cncc(OC[C@@H](N)Cc4cccc(OCC5CCNCC5)c4)c3)cc12` gave a concentration for half-maximal inhibition (IC50) of 6.8 nM.

`O=C1C(Nc2cc(F)ccc2F)=C(Cl)C(=O)c2[nH]ncc21` returned an IC50 of 16000 nM. The molecule `Cc1cc(C[C@H](N)COc2cncc(-c3cc4c(C)n[nH]c4cn3)c2)ccc1F` gave an IC50 of 2.5 nM. `Cc1ccc(F)cc1C[C@H](N)COc1cncc(-c2cc3c(C)n[nH]c3cn2)c1` came in with a concentration for half-maximal inhibition (IC50) of 3.9 nM. This IC50 is about 1.6-fold higher than that of the molecule before.

As to `N[C@H](COc1cncc(-c2ccc3c(c2)C(=O)C(=O)N3)c1)Cc1c[nH]c2ccccc12`, it took 5.4 nM to reach half-maximal inhibition (IC50). Then `Cn1cc(C(CN)Oc2cncc(/C=C/c3ccncc3)c2)c2ccccc21` (stereo unspecified), with 760 nM; and `CCc1ncc(OC[C@@H](N)Cc2c[nH]c3ccccc23)cc1-c1ccc2cnccc2c1`, with 0.8 nM. The result for `Cc1n[nH]c2cnc(-c3cncc(OC[C@@H](N)Cc4cccc(OCC5CCCCC5)c4)c3)cc12` reads 1360 nM; that for `N[C@H](COc1cncc(-c2ccc3c(c2)C(F)(F)C(=O)N3)c1)Cc1c[nH]c2ccccc12`, 1.5 nM. With `N[C@H](COc1cncc(-c2ccc3ccccc3c2)c1)Cc1c[nH]c2ccccc12`, the IC50 stood at 1120 nM.

The molecule `N[C@H](COc1cncc(/C=C/c2ccncc2)c1)C(c1ccccc1)c1ccccc1` gave an IC50 of 273 nM. For the molecule `Cc1n[nH]c2cnc(-c3cncc(OC[C@@H](N)Cc4ccc(Br)cc4)c3)cc12`, 5 nM corresponded to half-maximal inhibition (IC50). Compared with the last molecule, the IC50 is about 55-fold lower. Molecule `Cc1n[nH]c2cnc(-c3cncc(OC[C@@H](N)Cc4ccc(F)c(F)c4F)c3)cc12` displayed an IC50 of 12 nM.

In turn, `N[C@H](COc1cncc(-c2ccc3c(c2)C(c2ccccc2)C(=O)N3)c1)Cc1c[nH]c2ccccc12` (stereo partly specified) returned a half-maximal inhibitory concentration (IC50) of 5.9 nM.

`Cc1n[nH]c2cnc(-c3cncc(OC[C@@H](N)Cc4cccc(F)c4)c3)cc12` registered an IC50 of 8.4 nM. This IC50 and that of the molecule before are within 1.5-fold of each other.

Turning to `N[C@H](COc1cncc(-c2ccc3[nH]nc(C=O)c3c2)c1)Cc1c[nH]c2ccccc12`, 1850 nM corresponded to half-maximal inhibition (IC50).

The record behind these values is ChEMBL document CHEMBL1154070, “QSAR study of Akt/protein kinase B (PKB) inhibitors using support vector machine” (Eur J Med Chem, 2009).
